Data published in US5652334A, “Method for design of substances that enhance memory and improve the quality of life” (City of Hope, priority 1993, dated 1997).
Ends that are not written are not given here. Peptide text beside a SMILES is read from it.

Columns and labels:
CD-1 male mice [1] = assay: Footshock active avoidance training (FAAT) in T-maze, amnesia test in well-trained mice, post-training ICV injection; format: in vivo; conditions: for amnestic effect on retention of FAAT: 6.14 nmol of peptide per mouse (except dose-response curves), well-trained mice, retention tested one week later; for amnestic efficacy/potency compared with another peptide: dose-response curves / FIG. 19
Procedure: (§1) Test Animals. After 1 week in the laboratory, CD-1 male mice obtained from Charles River Breeding Laboratories were caged individually 24-28 hours prior to training and remained singly housed until retention was tested one week later. Animal rooms were on a 12 hour light/dark cycle with lights going on at the hour of 0600. Median body weight was 35 g, with a range of 33-38 g. Mice were assigned randomly to groups of 15 in the experiments reported in FIGS. 1-18 and groups of 10 for the dose-response curves (FIGS. 19 and 20) and were trained and tested between the hours of 0700 and 1500.
(§2) Peptides Tested. With the exception of Val Phe and Phe Val from Sigma, all peptides used in these studies were synthesized and analyzed to establish purity by standard methods at the Beckman Research Institute. Peptides were dissolved in: (1) saline; (2) 8% vol/vol dimethyl sulfoxide; (3) glacial acetic acid neutralized with […]; or (4) NaOH neutralized with HCl.
With exception of dose-response curves, the experiments reported below tested whether or not there was an amnestic effect at 6.14 nmol of peptide per mouse.
(§3) Apparatus, Training and Testing Procedures. The T-maze used for footshock active avoidance training (FAAT) consisted of a black plastic alley (46 cm long) with a start box at one end and two goal boxes (17.5 cm long) at the other. The start box was separated from the alley by a plastic guillotine door that prevented movement down the alley until training began. The alley was 12.5 cm deep and 9.8 cm wide. An electrifiable stainless steel rod floor ran throughout the maze.
(§4) Mice were not permitted to explore the maze before training. A block of training trials began when a mouse was placed in the start box. The guillotine door was raised and a muffled doorbell-type buzzer sounded simultaneously; footshock was 5 seconds later through a scrambled grid floor shocker (Colbourn Instruments, Model E13-08). The goal box first entered during the first set of trials was designated as "incorrect", and footshock was continued until the mouse entered the other goal box, which in all subsequent trials was designated "correct" for the particular mouse. At the end of each group of trials, the mouse was removed to its home cage.
As training proceeded, a mouse made one of two types of responses. A response latency longer than 5 seconds was classed as an escape from the footshock. A response latency less than or equal to 5 seconds was considered an avoidance, since the mouse avoided receiving a footshock. Two exclusion criteria were applied to reduce learning variability among mice, as follows. On the first training trials, mice with escape latencies greater than 20 seconds were discarded. Mice not having at least one errorless escape latency between 1.5 and 3.5 seconds on training trials 3 or 4 were excluded. […] Mice received five such training trials. One week after training and post-trial administration of vehicle alone or vehicle containing test substance, T-maze training was resumed until each mouse made five avoidance responses in six consecutive training trials (trials to criterion). The recall score was taken to be the percentage of tested mice remembering original training.
In these instances, training was performed under conditions that tend to maximize learning (sound intensity, 65 decibels; footshock current, 0.35 mA; intertrial interval, 45 seconds).

CD-1 male mice [2] = assay: FAAT in T-maze, memory-enhancement test in weakly trained mice (poor retention in vehicle controls), post-training ICV injection; format: in vivo; conditions: for Lowest Concentration For Significant Memory Enhancement: Table 1
Procedure: as §1
as §2, with “HCl. […] Analysis of variance showing insignificant differences among the latter, the value for the most frequently employed (No. 2 above) was used for comparison with groups receiving test peptides.” for “HCl.”
as §3, §4
As training proceeded, a mouse made one of two types of responses. A response latency longer than 5 seconds was classed as an escape from the footshock. A response latency less than or equal to 5 seconds was considered an avoidance, since the mouse avoided receiving a footshock. Two exclusion criteria were applied to reduce learning variability among mice, as follows. On the first training trials, mice with escape latencies greater than 20 seconds were discarded. Mice not having at least one errorless escape latency between 1.5 and 3.5 seconds on training trials 3 or 4 were excluded. The total exclusions were fewer than 15%. Mice received five such training trials. One week after training and post-trial administration of vehicle alone or vehicle containing test substance, T-maze training was resumed until each mouse made five avoidance responses in six consecutive training trials (trials to criterion). The recall score was taken to be the percentage of tested mice remembering original training.
Well-trained animals (recall score approximately 80%) were used to determine whether or not administered substances could cause amnesia. In these instances, training was performed under conditions that tend to maximize learning (sound intensity, 65 decibels; footshock current, 0.35 mA; intertrial interval, 45 seconds). In the cases in which it was desired to detect whether or not there was an enhancing effect on memory, training conditions were adjusted so that the initial recall score in vehicle controls was only approximately 20% (sound intensity, 55 decibels; footshock current, 0.30 mA; intertrial interval, 30 seconds). […]

CD-1 male mice [3] = conditions: cited from earlier work; for amnestic effect on retention of FAAT (earlier publications): post-training ICV, references 1 and 12
[4] = references 13-16; cited from earlier work
[5] = tested on: hippocampal neurons in culture; conditions: reference 17; cited from earlier work

N[C@@H](Cc1ccccc1)C(=O)N[C@@H](Cc1ccccc1)C(=O)O [Phe Phe] (H-Phe-Phe-OH)
amnestic effect on retention of FAAT (CD-1 male mice [1]; post-training ICV): amnestically ineffective
mean trials to criterion ±SEM (CD-1 male mice [1]; post-training ICV, 6.14 nmol per mouse, vehicle 6.80±0.21): 7.0±0.42

VFFAE [Val Phe Phe Ala Glu]
amnestic efficacy/potency compared with another peptide (CD-1 male mice [1]; ICV): lesser potency of Val Phe Phe Ala Glu than that of Val Phe Phe
amnestic effect on retention of FAAT (CD-1 male mice [1]; post-training ICV): amnestic

CC(C)[C@H](N)C(=O)N[C@@H](Cc1ccccc1)C(=O)N[C@@H](Cc1ccccc1)C(=O)O [Val Phe Phe] (H-Val-Phe-Phe-OH)
dose at which statistically significant memory enhancement found (CD-1 male mice [2]; weakly trained animals): 1.9×10^-11 moles/mouse
memory-enhancing effect (CD-1 male mice [2]; weakly trained animals): memory enhancer
Lowest Concentration For Significant Memory Enhancement (CD-1 male mice [2]; weakly trained mice): 1.9 × 10^-11 Moles/Mouse
amnestic efficacy/potency compared with another peptide (CD-1 male mice [1]; ICV): not significantly different from that of the β-A4 homologue [Gln^11 ]β-(1-28)
dose at which amnesia first noted (CD-1 male mice [1]; ICV, well-trained animals): 3×10^-9 moles/mouse
amnestic effect on retention of FAAT (CD-1 male mice [1]; post-training ICV): amnestic

His Ser Asp Ala Val Phe Thr Asp Asn Tyr Thr Arg Leu Lys Gln Met Ala Val Lys Lys Tyr Leu Asn Ser Ile Leu Asn-NH2 (HSDAVFTDNYTRLKQMAVKKYLNSILN-NH2) [VIP]
amnestic effect on retention of FAAT (earlier publications) (CD-1 male mice [3]): amnestic

Pro Arg Pro Gly Pro Gln Gln Phe Phe Gly Leu Met-NH2 (PRPGPQQFFGLM-NH2) [Substance Pro]
memory retention (literature) [4]: enhance memory retention
effect on trophic and toxic effects of β-A4 on hippocampal neurons [5]: counteract trophic and toxic effects of B-A4 on hippocampal neurons in culture

NC(=O)CC[C@H](N)C(=O)N[C@@H](Cc1ccccc1)C(=O)N[C@@H](Cc1ccccc1)C(=O)NCC(=O)O [Gln Phe Phe Gly] (H-QFFG-OH)
dose at which statistically significant memory enhancement found (CD-1 male mice [2]; weakly trained animals): 10^-14 moles/mouse
memory-enhancing potency compared with other peptides (CD-1 male mice [2]; weakly trained mice): by far the most potent
Lowest Concentration For Significant Memory Enhancement (CD-1 male mice [2]; weakly trained mice): 6 × 10^-14 Moles/Mouse
amnestic effect on retention of FAAT (CD-1 male mice [1]; post-training ICV): amnestic

VFFAEDVGSNK [β-(18-28)]
amnestic effect on retention of FAAT (earlier publications) (CD-1 male mice [3]): amnestic

KLVFFAE [Lys Leu Val Phe Phe Ala Glu]
amnestic effect on retention of FAAT (CD-1 male mice [1]; post-training ICV): not amnestic

CC(C)[C@H](N)C(=O)N[C@@H](Cc1ccccc1)C(=O)N[C@H](C(=O)O)[C@@H](C)O [Val Phe Thr] (H-Val-Phe-Thr-OH)
amnestic effect on retention of FAAT (CD-1 male mice [1]; post-training ICV): amnestic

β-(1-18): β-A4 fragment as printed in b47; probably the β-(1-28) homologue of reference 1 (DAEFRHDSGYEVHHQKLV; Amyloid-beta protein 42; UniProt P05067 672-689, looked up, fragment)
dose at which active (amnestic) (CD-1 male mice [3]; ICV, reference 1): 1.5 nmol per mouse
